For nine compounds, IC50 and Emax results are on record in patent US20190119200A1, “TERTIARY AMIDES AND METHOD OF USE” (AbbVie Inc., priority 2016, published 2019).

As usually defined, the IC50 is the concentration at which inhibition is half-maximal.

Common to all, as to format: cell-based
For assay [1], the target named is T1, LPAR1 (Homo sapiens, UniProt Q92633).
T1 construct: host or cells: U2OS
Description: LPAR1 FLIPR Assay. To be noted: U2OS cells stably expressing LPAR1, LPA (EC80), Calcium 6 FLIPR dye; for Emax: read-out: Maximum Inhibition. A digest of the protocol:
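Calcium flux read-out (515-575 nm, FLIPR) in LPAR1-expressing U2OS cells after LPA challenge at EC80, given 3 min after compound addition; cells carried Calcium 6 dye loaded 2 h at 37° C. Eleven-point 3-fold dilutions were fitted with a four-parameter Hill equation for IC50.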

The target of assay [2] is T1, LPAR1. Description: IP-One HTRF Assay. Particulars: U2OS cells stably expressing LPAR1, LPA stimulation, IP-One Tb HTRF kit; for Emax: read-out: Maximum Inhibition. The method, then: U2OS cells stably expressing LPAR1 (Life Technologies #K1519A) were plated at 20000 cells/well in growth medium (McCoy's 5A(Life Technologies #16600-082)) with 10% dFBS (Life Technologies #26400-036), 0.1 mM non-essential amino acids, 25 mM HEPES, 1 mM sodium pyruvate, 1% penicillin/streptomycin, 50 μg/mL hygromycin, and 100 μg/mL Geneticin® in tissue culture treated 384-well white plates (Greiner #781080) in humidified 5% CO2 at 37° C. overnight. On the day of the assay, culture medium was replaced with 30 μL/well of McCoy's 5A with 0.1% BSA. Cells were incubated in humidified 5% CO2 at 37° C. for 3 more hours. Compounds were 3-fold serial diluted from 2 mM for 11-points using dimethyl sulfoxide. 1 μL of compound in DMSO was diluted in 50 μL stimulation buffer from an IP-One Tb HTRF kit (Cisbio #62IPAPEB) immediately before assay. 15 μL/well of 1.33× compound in stimulation buffer was added to cells after removal of culture medium. After 20 minutes of incubation at 37° C., 5 μL/well of 8 μM LPA diluted in stimulation buffer with 0.1% fatty acid free BSA was added to cells. […]. To EC100 wells were added 4×20 μM LPA. To the cells were added 5 μL/well IP1-d2 conjugate and 5 μLwell IP1-K antibody after 2 hours of incubation at 37° C. Cells were incubated at room temperature for 1 hour (protected from light). The plate was then read at 665 nm and 615 nm using an EnVision® Multilabel Plate Reader. IC50 values were calculated from curve fits of the ratio data using a four-parameter logistic Hill equation (Assay Explorer 3.3 Client).
(In general: TR-FRET usually uses a lanthanide donor and a delayed reading to cut background.)

The subject of assay [3] is LPA-induced MCP-1 in NRK-49F cells. In words: LPA-induced MCP-1 AlphaLISA assay. Particulars: Rattus norvegicus, final LPA 10 μM, 7 hours; for Emax: read-out: Maximum Inhibition. A digest of the protocol:
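NRK-49F rat fibroblasts, serum-starved overnight, pretreated with compound for 30 min at 37 °C (1% DMSO final), then stimulated with 10 μM LPA final. MCP-1 in the supernatant was measured by mouse/rat CCL2 AlphaLISA. IC50 values came from four-parameter logistic fits of the ratio data.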
On the technique in general: In Alpha technology, singlet oxygen from a donor bead excites a nearby acceptor bead.

T1 sequence (Q92633 whole entry): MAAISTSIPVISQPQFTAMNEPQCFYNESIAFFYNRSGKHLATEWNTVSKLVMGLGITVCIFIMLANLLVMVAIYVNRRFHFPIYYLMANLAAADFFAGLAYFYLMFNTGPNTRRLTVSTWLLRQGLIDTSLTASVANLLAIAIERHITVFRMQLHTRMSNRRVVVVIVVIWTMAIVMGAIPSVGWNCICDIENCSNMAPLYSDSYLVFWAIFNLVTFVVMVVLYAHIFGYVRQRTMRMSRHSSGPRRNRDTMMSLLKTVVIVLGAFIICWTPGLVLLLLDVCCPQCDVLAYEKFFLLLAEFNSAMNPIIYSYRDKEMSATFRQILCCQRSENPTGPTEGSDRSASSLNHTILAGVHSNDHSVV

For `COc1cc(OC)cc(C(=O)N(CCCCP(=O)(O)O)CCCc2ccccc2)c1` [Example 75, {4-[(3,5-dimethoxybenzoyl)(3-phenylpropyl)amino]butyl}phosphonic Acid], the IC50 came out at 20 nM on LPAR1 [1], 1070 nM against LPAR1 [2] and 3250 nM in assay [3]. The Emax on LPAR1 [1] turned out to be 72%; on LPAR1 [2] it was 77%; in assay [3], 65%.

Regarding `COc1cc(C(=O)N(CCCCC(=O)O)CCCc2ccc(C)o2)cc(OC)c1C` [Example 138, 5-{(3,5-dimethoxy-4-methylbenzoyl)[3-(5-methylfuran-2-yl)propyl]amino}pentanoic Acid], the IC50 at LPAR1 [1] worked out at 13 nM; against LPAR1 [2], 201 nM; in assay [3], 1010 nM. In addition, the Emax on LPAR1 [1] turned out to be 89%; on LPAR1 [2], 87%; in assay [3], 85%.

With `COc1cc(C(=O)N(CCCc2ccccc2)CCCC(C)C(=O)O)cc(OC)c1C` (centres unmarked) [Example 54, 5-[(3,5-dimethoxy-4-methylbenzoyl)(3-phenylpropyl)amino]-2-methylpentanoic Acid], the IC50 is 15 nM at LPAR1 [1], 22 nM against LPAR1 [2] and 55 nM in assay [3]. Also, the Emax is 100% at LPAR1 [1], 91% at LPAR1 [2] and 96% in assay [3].

On to `COc1cc(C(=O)N(CCCCCC(=O)O)CCCc2ccccc2)cc(OC)c1C` [Example 5, 6-[(3,5-dimethoxy-4-methylbenzoyl)(3-phenylpropyl)amino]hexanoic Acid], for which the values for the IC50 (on LPAR1 [1]; against LPAR1 [2]; in assay [3]) were 27 nM, 313 nM and 286 nM, respectively. Further, the Emax at LPAR1 [1] turned out to be 97%; on LPAR1 [2] it was 105%; in assay [3], 97%.

Consider `COc1cc(OC)cc(C(=O)N(CCCc2ccccc2)CCCC(C)C(=O)O)c1` (centres unmarked) [Example 98, 5-[(3,5-dimethoxybenzoyl)(3-phenylpropyl)amino]-2-methylpentanoic Acid], for which the IC50 on LPAR1 [1] amounted to 29 nM; against LPAR1 [2] it was 836 nM; in assay [3], 4580 nM. The figures for the Emax (on LPAR1 [1]; at LPAR1 [2]; in assay [3]) were 87%, 76% and 66%, respectively.

In the case of `COc1cc(C(=O)N(CCCc2ccccc2)CCOC(C)(C)C(=O)O)cc(OC)c1C` [Example 55, 2-{2-[(3,5-dimethoxy-4-methylbenzoyl)(3-phenylpropyl)amino]ethoxy}-2-methylpropanoic Acid], the IC50 on LPAR1 [1] amounted to 22 nM; against LPAR1 [2] it was 89 nM; in assay [3], 111 nM. Moreover, the Emax at LPAR1 [1] was 100%; on LPAR1 [2], 98%; in assay [3], 93%.

On to `COc1cc(OC)cc(C(=O)N(CCCc2ccccc2)CCCC(C)(C)C(=O)O)c1` [Example 108, 5-[(3,5-dimethoxybenzoyl)(3-phenylpropyl)amino]-2,2-dimethylpentanoic Acid], for which the IC50 on LPAR1 [1] was 26 nM; on LPAR1 [2], 230 nM; in assay [3], 668 nM. Further, the values for the Emax (on LPAR1 [1]; on LPAR1 [2]; in assay [3]) were 94%, 82% and 83%, respectively.

For the compound `COc1cc(C(=O)N(CCCc2ccccc2)CC(=O)NC2(C(=O)O)CCCCC2)cc(OC)c1C` [Example 2, 1-{[N-(3,5-dimethoxy-4-methylbenzoyl)-N-(3-phenylpropyl)glycyl]amino}cyclohexane-1-carboxylic Acid], at LPAR1 [1], the IC50 was 114 nM and the Emax was 72%. Also, at LPAR1 [2], it took 4830 nM to reach half-maximal inhibition (IC50) and the Emax was 84%.

Regarding `CNS(=O)(=O)NC(=O)CCN(CCCc1ccccc1)C(=O)c1cc(OC)c(C)c(OC)c1` [Example 68, 3,5-dimethoxy-4-methyl-N-{3-[(methylsulfamoyl)amino]-3-oxopropyl}-N-(3-phenylpropyl)benzamide], on LPAR1 [1], the IC50 is 902 nM and the Emax came out at 52%. In addition, at LPAR1 [2], the IC50 was determined as 13300 nM and the Emax stood at 67%.
